According to patent US8580812B2, “Heteroaryl amide analogues as P2X7 antagonists” (H. Lundbeck A/S, priority 2007, dated 2013):

Target: T1, P2X7 (Homo sapiens, UniProt Q99572)
T1 construct: host or cells: SH-SY5Y
T1 sequence (Q99572 1-595): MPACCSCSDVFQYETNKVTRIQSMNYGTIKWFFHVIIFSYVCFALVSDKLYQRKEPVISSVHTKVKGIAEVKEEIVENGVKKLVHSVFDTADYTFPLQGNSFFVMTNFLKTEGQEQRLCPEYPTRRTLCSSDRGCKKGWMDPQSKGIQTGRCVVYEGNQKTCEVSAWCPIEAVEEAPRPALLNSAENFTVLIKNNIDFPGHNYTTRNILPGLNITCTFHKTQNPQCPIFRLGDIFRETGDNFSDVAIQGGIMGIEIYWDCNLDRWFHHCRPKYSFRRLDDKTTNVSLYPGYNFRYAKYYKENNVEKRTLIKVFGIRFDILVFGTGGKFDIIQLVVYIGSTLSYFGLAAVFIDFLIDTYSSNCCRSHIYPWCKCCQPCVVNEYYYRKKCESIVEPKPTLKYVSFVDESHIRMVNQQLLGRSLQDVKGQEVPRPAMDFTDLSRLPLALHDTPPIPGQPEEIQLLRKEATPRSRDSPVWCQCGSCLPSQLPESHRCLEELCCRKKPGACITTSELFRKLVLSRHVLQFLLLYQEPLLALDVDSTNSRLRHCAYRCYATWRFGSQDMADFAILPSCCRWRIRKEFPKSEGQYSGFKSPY
Test: High Throughput P2X7 Calcium Mobilization Assay (Example 4A), antagonist activity
Assay type: cell-based
Settings: SH-SY5Y cells, 50% decrease in fluorescence response of cells exposed to 80 μM BzATP
Experimental: A. High Throughput P2X7 Calcium Mobilization Assay
SH-SY5Y cells, ATCC Number CRL-2266, (American Type Culture Collection, Manassas, Va.) are cultured under DMEM/High medium supplemented with 10% FBS, and 10 mM HEPES (Invitrogen Corp., Carlsbad, Calif.) in 5% CO2 and at 37° C. One day prior to the experiment, cells are plated at a density of 100,000 cells/well in a 96 well black/clear TC plate (Corning® Costar®, Sigma-Aldrich Co., St. Louis, Mo.). At the beginning of the experiment, the culture medium is removed and cells are incubated with 50 μL of 2.3 μM Fluo-4 AM dye (Invitrogen Corp.) in the assay solution (5 mM KCl, 9.6 mM NaH2PO4.H2O, 25 mM HEPES, 280 mM Sucrose, 5 mM Glucose, and 0.5 mM CaCl2; pH is adjusted to 7.4 with NaOH) for an hour at 37° C. After one hour dye incubation, wells are rinsed once with 50 μL assay solution, and are then incubated for an hour at room temperature with 100 μL assay solution containing the test compound. The final concentration of test compound generally ranges from 1 to 2500 nM; for positive control cells, no test compound is added. After the one hour incubation, plates are transferred to a FLIPR^TETRA instrument (Molecular Devices, Sunnyvale, Calif.) for calcium mobilization analysis.
For determination of antagonist activity, 50 μL of P2X7 agonist (2′(3′)-O-(4-benzoyl-benzoyl)adenosine 5′-triphosephate (BzATP; Sigma-Aldrich) in the assay solution is transferred using the FLIPR into the plate, such that the final agonist concentration is 80 μM (about EC50). In negative control cells, 50 μL of assay solution without agonist is added at this stage. The peak fluorescence signal over a 2 minute period is then measured.
First, the average maximum relative fluorescent unit (RFU) response from the negative control wells (no agonist) is subtracted from the maximum response detected for each of the other experimental wells. Second, average maximum RFU response is calculated for the positive control wells (agonist wells). Then, percent inhibition for each compound tested is calculated using the equation: Percent Inhibition=100−100×(Peak Signal in Test Cells/Peak Signal in Control Cells) The % inhibition data is plotted as a function of test compound concentration and test compound IC50 is determined using, for example, KALEIDAGRAPH software (Synergy Software, Reading, Pa.) best fit of the data to the equation: y=m1*(1/(1+(m2/m0)^m3)) where y is the percent inhibition, m0 is […], m1 is the maximum RFU, m2 corresponds to the test compound IC50 (the concentration required to provide a 50% decrease, relative to the response observed in the presence of agonist and without antagonist) and m3 is the Hill coefficient.

| IC50 | SMILES |
| --- | --- |
| ≤ 2 µM | CN(C(=O)c1cc2c(C(=O)NCC34CC5CC(CC(C5)C3)C4)cccn2n1)c1ccncc1 [Compound 39, 4-N-(adamantan-1-ylmethyl)-2-N-methyl-2-N-pyridin-4-ylpyrazolo[1,5-a]pyridine-2,4-dicarboxamide] |
| ≤ 2 µM | O=C(NCC12CC3CC(CC(C3)C1)C2)c1cccn2nc(CCC3=NCCN3)cc12 [Compound 95, N-(adamantan-1-ylmethyl)-2-[2-(4,5-dihydro-1H-imidazol-2-yl)ethyl]pyrazolo[1,5-a]pyridine-4-carboxamide] |
| ≤ 2 µM | O=C(NCC1(c2ccc(C(F)(F)F)cc2)CCCCC1)c1cccn2nc(C(=O)N3CCOCC3)cc12 [Compound 94, 2-(morpholin-4-ylcarbonyl)-N-({1-[4-(trifluoromethyl)phenyl]cyclohexyl}methyl) pyrazolo[1,5-a]pyridine-4-carboxamide] |
| ≤ 2 µM | CN(CCF)C(=O)c1cc2c(C(=O)NCC34CC5CC(CC(C5)C3)C4)cccn2n1 [Compound 74, 4-N-(adamantan-1-ylmethyl)-2-N-(2-fluoroethyl)-2-N-methylpyrazolo[1,5-a]pyridine-2,4-dicarboxamide] |
| ≤ 2 µM | CN(Cc1cc2c(C(=O)NCC34CC5CC(CC(C5)C3)C4)cccn2n1)Cc1ccccc1F [Compound 68, N-(adamantan-1-ylmethyl)-2-{[(2-fluorobenzyl)(methyl)amino]methyl}pyrazolo [1,5-a]pyridine-4-carboxamide] |
| ≤ 2 µM | CN(Cc1cccnc1)Cc1cc2c(C(=O)NCC34CC5CC(CC(C5)C3)C4)cccn2n1 [Compound 54, N-(adamantan-1-ylmethyl)-2-{[methyl(pyridin-3-ylmethyl)amino]methyl} pyrazolo[1,5-a]pyridine-4-carboxamide] |
| ≤ 2 µM | CN(Cc1cccc(F)c1)Cc1cc2c(C(=O)NCC34CC5CC(CC(C5)C3)C4)cccn2n1 [Compound 69, N-(adamantan-1-ylmethyl)-2-{[(3-fluorobenzyl)(methyl)amino]methyl}pyrazolo [1,5-a]pyridine-4-carboxamide] |
| ≤ 2 µM | O=C(NC1CCS(=O)(=O)C1)c1cc2c(C(=O)NCC34CC5CC(CC(C5)C3)C4)cccn2n1 (stereo not shown) [Compound 82, 4-N-(adamantan-1-ylmethyl)-2-N-(1,1-dioxidotetrahydrothio-phen-3-yl)pyrazolo[1,5-a]pyridine-2,4-dicarboxamide] |
| ≤ 2 µM | O=C(NCC12CC3CC(CC(C3)C1)C2)c1cccn2nc(CN3CCn4cncc4C3)cc12 [Compound 52, N-(adamantan-1-ylmethyl)-2-(5,6-dihydroimidazo[1,5-a]pyrazin-7(8H)-ylmethyl)pyrazolo[1,5-a]pyridine-4-carboxamide] |
| ≤ 2 µM | CN(CC(F)F)C(=O)Cc1cc2c(C(=O)NCC34CC5CC(CC(C5)C3)C4)cccn2n1 [Compound 78, N-(adamantan-1-ylmethyl)-2-{2-[(2,2-difluoroethyl)(methyl)amino]-2-oxoethyl}pyrazolo[1,5-a]pyridine-4-carboxamide] |
| ≤ 2 µM | O=C(NCC12CC3CC(CC(C3)C1)C2)c1cccn2nc(CC(=O)N3CCOCC3)cc12 [Compound 25, N-(adamantan-1-ylmethyl)-2-(2-morpholin-4-yl-2-oxoethyl)pyrazolo[1,5-a]pyridine-4-carboxamide] |
| ≤ 2 µM | O=C(NCC1(c2ccc(Cl)cc2)CCCCC1)c1cccn2nc(C(Cc3ccccc3)C(=O)O)cc12 (stereo not shown) [Compound 104, 2-[4-({[1-(4-chlorophenyl)cyclohex-yl]methyl}carbamoyl)pyrazolo[1,5-a]pyridin-2-yl]-3-phenyl propanoic acid] |
| ≤ 2 µM | CN(CC(F)F)C(=O)c1cc2c(C(=O)NCC34CC5CC(CC(C5)C3)C4)cccn2n1 [Compound 75, 4-N-(adamantan-1-ylmethyl)-2-N-(2,2-difluoroethyl)-2-N-methylpyrazolo[1,5-a]pyridine-2,4-dicarboxamide] |
| ≤ 2 µM | CN(Cc1cnn(C)c1)C(=O)c1cc2c(C(=O)NCC34CC5CC(CC(C5)C3)C4)cccn2n1 [Compound 49, 4-N-(adamantan-1-ylmethyl)-2-N-methyl-2-N-[(1-methyl-1H-pyrazol-4-yl)methyl]pyrazolo[1,5-a]pyridine-2,4-dicarboxamide] |
| ≤ 2 µM | CCN[C@@H]1CCN(C(=O)c2cc3c(C(=O)NCC45CC6CC(CC(C6)C4)C5)cccn3n2)C1 [Compound 47, N-(adamantan-1-ylmethyl)-2-{[(3R)-3-(ethylamino)pyrrolidin-1-yl]carbonyl}pyrazolo [1,5-a]pyridine-4-carboxamide] |
| ≤ 2 µM | N[C@@H]1CCN(C(=O)c2cc3c(NC(=O)CC45CC6CC(CC(C6)C4)C5)cccn3n2)C1 [Compound 99, 2-adamantan-1-yl-N-(2-{[(3R)-3-aminopyrrolidin-1-yl]carbonyl}pyrazolo [1,5-a]pyridin-4-yl)acetamide] |
| ≤ 2 µM | CN(CCF)C(=O)c1cc2c(C(=O)NCC3(c4ccc(Cl)cc4)CCCCC3)cccn2n1 [Compound 85, 4-N-{[1-(4-chlorophenyl)cyclohex-yl]methyl}-2-N-(2-fluoroethyl)-2-N-methylpyrazolo[1,5-a]pyridine-2,4-dicarboxamide] |
| ≤ 2 µM | CC(C)CC(CNC(=O)c1cccn2nc(C(=O)N3CCOCC3)cc12)c1ccc(C(F)(F)F)cc1 (stereo not shown) [Compound 87, N-{4-methyl-2-[4-(trifluoromethyl)phenyl]pentyl}-2-(morpholin-4-ylcarbonyl)pyrazolo [1,5-a]pyridine-4-carboxamide] |
| ≤ 2 µM | COCCN(C)C(=O)c1cc2c(C(=O)NCC34CC5CC(CC(C5)C3)C4)cccn2n1 [Compound 18, 4-N-(adamantan-1-ylmethyl)-2-N-(2-methoxyethyl)-2-N-methylpyrazolo[1,5-a]pyridine-2,4-dicarboxamide] |
| ≤ 2 µM | CC(C)CC(CNC(=O)c1cccn2nc(C(=O)N3CCOC(C)(C)C3)cc12)c1ccc(C(F)(F)F)cc1 (stereo not shown) [Compound 101, 2-[(2,2-dimethylmorpholin-4-yl)carbonyl]-N-{4-methyl-2-[4-(trifluoromethyl)phenyl]pentyl}pyrazolo[1,5-a]pyridine-4-carboxamide] |
| ≤ 2 µM | O=C(O)CC(Cc1ccccc1)c1cc2c(C(=O)NCC34CC5CC(CC(C5)C3)C4)cccn2n1 (stereo not shown) [Compound 107, 3-{4-[(adamantan-1-ylmethyl)carbamoyl]pyrazolo[1,5-a]pyridin-2-yl}-4-phenylbutanoic acid] |
| ≤ 2 µM | CN(CCF)C(=O)Cc1cc2c(C(=O)NCC34CC5CC(CC(C5)C3)C4)cccn2n1 [Compound 77, N-(adamantan-1-ylmethyl)-2-{2-[(2-fluoroethyl)(methyl)amino]-2-oxoethyl}pyrazolo[1,5-a]pyridine-4-carboxamide] |
| ≤ 2 µM | CN(CC(F)(F)F)C(=O)Cc1cc2c(C(=O)NCC34CC5CC(CC(C5)C3)C4)cccn2n1 [Compound 79, N-(adamantan-1-ylmethyl)-2-{2-[methyl(2,2,2-trifluoroethyl)amino]-2-oxoethyl}pyrazolo[1,5-a]pyridine-4-carboxamide] |
| ≤ 2 µM | CC(CC(=O)O)c1cc2c(C(=O)NCC34CC5CC(CC(C5)C3)C4)cccn2n1 (stereo not shown) [Compound 105, 3-{4-[(adamantan-1-ylmethyl)carbamoyl]pyrazolo[1,5-a]pyridin-2-yl}butanoic acid] |
| ≤ 2 µM | CN(Cc1ccc(F)cc1)Cc1cc2c(C(=O)NCC34CC5CC(CC(C5)C3)C4)cccn2n1 [Compound 70, N-(adamantan-1-ylmethyl)-2-{[(4-fluorobenzyl)(methyl)amino]methyl}pyrazolo [1,5-a]pyridine-4-carboxamide] |
